These results are taken from patent publication US9056875B2, “Substituted pyrazolo[3′,4′:4,5]thieno[2,3-C]pyridazin-3-amine analogs as positive allosteric modulators of the muscarinic acetylcholine receptor M4” (Vanderbilt University, priority 2012, dated 2015).

The term Emax denotes the size of the effect at its maximum, as opposed to the concentration needed. Usually pEC50 stands for −log10 of the EC50, conventionally taken in molar units.

Structures are written as SMILES. pEC50: −log10 of the molar value. Read-outs that look alike come from different tables or passages of the source. Where only a bound is given, the exact number is not on record here.

For data set [1] the following is noted: Alzheimer's disease patients; cited from earlier work.
For data set [2] the following is noted: cited from earlier work.
For data set [3] the following is noted: patients treated with AChE inhibitor; cited from earlier work.
The target of a further data set is T1, mAChR rM4 (Rattus norvegicus, UniProt P08485).
T1 construct: expressed in transfected cells
T1 sequence (P08485 1-478): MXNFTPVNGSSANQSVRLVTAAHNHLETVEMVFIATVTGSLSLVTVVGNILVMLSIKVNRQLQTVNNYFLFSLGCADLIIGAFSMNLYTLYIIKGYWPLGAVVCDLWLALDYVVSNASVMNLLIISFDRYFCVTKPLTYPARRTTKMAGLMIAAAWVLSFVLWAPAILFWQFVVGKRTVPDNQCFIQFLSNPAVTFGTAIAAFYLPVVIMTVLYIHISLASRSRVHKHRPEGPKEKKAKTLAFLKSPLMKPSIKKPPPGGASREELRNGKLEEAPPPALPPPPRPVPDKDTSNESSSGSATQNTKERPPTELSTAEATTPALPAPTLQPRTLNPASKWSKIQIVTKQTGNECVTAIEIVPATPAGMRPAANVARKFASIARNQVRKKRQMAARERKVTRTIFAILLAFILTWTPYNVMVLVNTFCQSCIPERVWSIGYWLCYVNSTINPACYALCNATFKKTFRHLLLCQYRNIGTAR
The experiment in a line: mAChR rM4 cell-based functional assay (calcium mobilization, potentiation of EC20 acetylcholine response). The note with it: for Emax at 30 µM: %ACh maximum at 30 μM; for EC50 / pEC50: rM4-transfected CHO-K1 cells, positive allosteric modulation of EC20 ACh response; for EC50: read-out: pEC50 (converted); for pEC50: read-out: EC50. The source says: Chinese hamster ovary (CHO-K1) cells stably expressing rat (r)M1 were purchased from the American Type Culture Collection and cultured according to their indicated protocol. CHO cells stably expressing human (h)M2, hM3, and hM5 were described previously (Levey A I, et al., (1991) J Neurosci 11:3218-3226.); hM1 and hM4 cDNAs were purchased from Missouri S&T cDNA Resource; rM4 cDNA was provided by T. I. Bonner (National Institutes of Health, Bethesda, Md.). rM2 and rM3 were cloned from a rat brain cDNA library and sequence verified. hM1, rM2, rM3, hM4, and rM4 cDNAs were used to stably transfect CHO-K1 cells purchased from the American Type Culture Collection using Lipofectamine® 2000. To make stable rM2, hM2, rM3, hM4, and rM4 cell lines for use in calcium mobilization assays, these cells also were stably transfected with a chimeric G-protein (Gqi5) (provided by B. R. Conklin, University of California, San Francisco) using Lipofectamine® 2000. rM1, hM1, rM3, hM3, rM5, and hM5 cells were grown in Ham's F-12 medium containing 10% heat-inactivated fetal bovine serum (FBS), 20 mM HEPES, and 50 μg/mL G418 sulfate. rM2-Gqi5, hM2-Gqi5, and hM4-Gqi5 cells were grown in the same medium also containing 500 μg/mL hygromycin B. Stable rM4-Gqi5 cells were grown in DMEM containing 10% heat-inactivated FBS, 20 mM HEPES, 400 μg/mL G418 sulfate, and 500 μg/mL Hygromycin B.
For high throughput measurement of agonist-evoked increases in intracellular calcium, CHO-K1 cells stably expressing the target muscarinic receptor were plated in growth medium lacking G418 and hygromycin at 15,000 cells/20 μL/well in Greiner 384-well black-walled, tissue culture (TC)-treated, clear-bottom plates (VWR). Cells were incubated overnight at 37° C. and 5% CO2. The next day, cells were washed using an ELX 405 (BioTek) with four washes (80 μL) of assay buffer then aspirated to 20 μL. Next, 20 μL of 16 μM Fluo-4/acetoxymethyl ester (Invitrogen, Carlsbad, Calif.) prepared as a 2.3 mM stock in DMSO and mixed in a 1:1 ratio with 10% (w/v) Pluronic F-127 and diluted in assay buffer was added to the wells and the cell plates were incubated for […] at 37° C. and 5% CO2. Dye was removed by washing with the ELX 405 (four 80 μL washes of assay buffer) then aspirated to 20 μL. Compound master plates were formatted in an 11 point CRC format (1:3 dilutions) in 100% DMSO with a starting concentration of 10 mM using the BRAVO liquid handler (Agilent). Test compound CRCs were then transferred to daughter plates (240 nL) using the Echo acoustic plate reformatter (Labcyte, Sunnyvale, Calif.) and then diluted into assay buffer (40 μL) to a 2× stock using a Thermo Fisher Combi (Thermo Fisher Scientific, Waltham, Mass.).
Calcium flux was measured using the Functional Drug Screening System (FDSS) 6000 (Hamamatsu Corporation, Tokyo, Japan) as an increase in the fluorescent static ratio. Compounds were applied to cells (20 μL, 2×) using the automated system of the FDSS 6000 at 4 s into the 300 s protocol and the data were collected at 1 Hz. At 144 s into the 300 s protocol, 10 μL of an EC20 concentration of the muscarinic receptor agonist acetylcholine was added (5×), followed by the addition of 12 μL an EC80 concentration of acetylcholine at the 230 s time point (5×). Agonist activity was analyzed as a concentration-dependent increase in calcium mobilization upon compound addition. Positive allosteric modulator activity was analyzed as a concentration-dependent increase in the EC20 acetylcholine response. Antagonist activity was analyzed as a concentration-dependent decrease in the EC80 acetylcholine response. Concentration-response curves were generated using a four-parameter logistical equation in XLfit™ curve fitting software (IDBS, Bridgewater, N.J.) for Excel (Microsoft, Redmond, Wash.) or Prism (GraphPad Software, Inc., San Diego, Calif.). […]
(In general: A change in cytosolic calcium serves as a functional read-out for many receptors and channels.)

`CCCCCCOc1nsnc1C1=CCCN(C)C1` [xanomeline]: in data set [1], the “psychotic behavioral symptoms such as delusions, suspiciousness, vocal outbursts, and hallucinations” value is “reduce psychotic behavioral symptoms”; the “treatment induced side effects” value is reported as “gastrointestinal effects”. In data set [2] (animal models), the catalepsy entry is recorded as “without causing catalepsy”. In addition, the “activity in animal models” value in data set [2] (compared with known antipsychotic drugs) is recorded as “active in animal models with similar profiles to known antipsychotic drugs”.

Regarding `Nc1c2c(nc3ccccc13)CCCC2` [tacrine], the “hepatotoxicity with elevated liver transaminases observed in patients” value in data set [3] is reported as “about 30 % of patients”.

As for `Cc1nnc2sc3c(NCc4ccc(F)c(S(C)(=O)=O)c4)nn(C)c3c2c1C` [Compound 5, N-(4-fluoro-3-(methylsulfonyl)benzyl)-1,7,8-trimethyl-1H-pyrazolo[3′,4′:4,5]thieno[2,3-c]pyridazin-3-amine], at mAChR rM4, the Emax at 30 µM was 54% and the EC50 was 14.1 nM.

For the compound `Cc1nnc2sc3c(NCc4ccco4)nn(C)c3c2c1C` [Compound 4, N-(furan-2-ylmethyl)-1,7,8-trimethyl-1H-pyrazolo[3′,4′:4,5]thieno[2,3-c]pyridazin-3-amine], on mAChR rM4, the Emax at 30 µM stood at 50% and the pEC50 was 6.74.

Consider `Cc1nnc2sc3c(NC4CCSC4)nn(C)c3c2c1C` (centres unmarked) [Compound 6, 1,7,8-trimethyl-N-(tetrahydrothiophen-3-yl)-1H-pyrazolo[3′,4′:4,5]thieno[2,3-c]pyridazin-3-amine], for which, on mAChR rM4, the Emax at 30 µM came out at 56% and the pEC50 is 7.01.

Consider `Cc1nnc2sc3c(NCC4CCNCC4)nn(C)c3c2c1C` [Compound 22, 1,7,8-trimethyl-N-(piperidin-4-ylmethyl)-1H-pyrazolo[3′,4′:4,5]thieno[2,3-c]pyridazin-3-amine], for which the pEC50 on mAChR rM4 was below 5.00.

In the case of `Cc1nnc2sc3c(NC4CN(S(C)(=O)=O)C4)nn(C)c3c2c1C` [Compound 15, 1,7,8-trimethyl-N-(1-(methylsulfonyl)azetidin-3-yl)-1H-pyrazolo[3′,4′:4,5]thieno[2,3-c]pyridazin-3-amine], on mAChR rM4, the Emax at 30 µM was 64% and the pEC50 is 7.20.

Consider `Cc1nnc2sc3c(NCc4ccc(S(C)(=O)=O)cc4)nn(C)c3c2c1C` [Compound 2, 1,7,8-trimethyl-N-(4-(methylsulfonyl)benzyl)-1H-pyrazolo[3′,4′:4,5]thieno[2,3-c]pyridazin-3-amine], for which, on mAChR rM4, the maximum response (Emax) at 30 µM came to 57% and the pEC50 was 6.89.

For the compound `Cc1nnc2sc3c(NCC4CCN(S(C)(=O)=O)CC4)nn(C)c3c2c1C` [Compound 24, 1,7,8-trimethyl-N-((1-(methylsulfonyl)piperidin-4-yl)methyl)-1H-pyrazolo[3′,4′:4,5]thieno[2,3-c]pyridazin-3-amine], at mAChR rM4, the maximal response (Emax) at 30 µM was determined as 61% and the pEC50 is 5.60.

Regarding `Cc1nnc2sc3c(NC4CCOC4)nn(C)c3c2c1C` (centres unmarked) [Compound 8, 1,7,8-trimethyl-N-(tetrahydrofuran-3-yl)-1H-pyrazolo[3′,4′:4,5]thieno[2,3-c]pyridazin-3-amine], at mAChR rM4, the Emax at 30 µM was found to be 55% and the pEC50 is 6.40.

Consider `Cc1nnc2sc3c(NC4CN(C(=O)OC(C)(C)C)C4)nn(C)c3c2c1C` [Compound 9, tert-butyl 3-((1,7,8-trimethyl-1H-pyrazolo[3′,4′:4,5]thieno[2,3-c]pyridazin-3-yl)amino)azetidine-1-carboxylate], for which, at mAChR rM4, the Emax at 30 µM was 58% and the EC50 is 25.1 nM.

Take `Cc1nnc2sc3c(NC4CCN(C(=O)OC(C)(C)C)CC4)nn(C)c3c2c1C` [Compound 17, tert-butyl 4-((1,7,8-trimethyl-1H-pyrazolo[3′,4′:4,5]thieno[2,3-c]pyridazin-3-yl)amino)piperidine-1-carboxylate]: on mAChR rM4, the Emax at 30 µM was determined as 47% and the pEC50 is 6.68.

Regarding `Cc1nnc2sc3c(NCc4ccc5c(c4)OCCO5)nn(C)c3c2c1C` [Compound 13, N-((2,3-dihydrobenzo[b][1,4]dioxin-6-yl)methyl)-1,7,8-trimethyl-1H-pyrazolo[3′,4′:4,5]thieno[2,3-c]pyridazin-3-amine], at mAChR rM4, the Emax at 30 µM was determined as 55% and the EC50 was 12.9 nM.
